From US10479780B2, “Aminopyrazole derivatives” (Chugai Seiyaku Kabushiki Kaisha, priority 2015, dated 2019)

Legend:
Assay type in all cases: biochemical
human Src enzyme = biological target: T1, human Src enzyme (Homo sapiens, UniProt P12931); test: Src enzyme inhibitory activity (time-resolved fluorometry, biotinylated peptide phosphorylation); settings: biotinylated peptide phosphorylation, read-out: SRC_IC50
T1 construct: purchased Carna Biosciences, Inc. 08-173
How it was run: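 Compounds were tested for blocking tyrosine phosphorylation of a biotinylated peptide substrate by recombinant human Src. Phosphorylated product was quantified by time-resolved fluorometry using europium cryptate and XL665 conjugates, and IC50 was calculated against the compound-free control.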

human Lck enzyme = biological target: T2, human Lck enzyme (Homo sapiens, UniProt P06239); test: Lck enzyme inhibitory activity (time-resolved fluorometry, biotinylated peptide phosphorylation); settings: biotinylated peptide phosphorylation, read-out: LCK_IC50
T2 construct: purchased Carna Biosciences, Inc. 08-170
How it was run: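 Readout pairs a europium cryptate-labelled anti-phosphotyrosine antibody with XL665-streptavidin, measured by time-resolved fluorescence. IC50 derived from percent inhibition against untreated controls.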

human Yes1 enzyme = biological target: T3, human Yes1 enzyme (Homo sapiens, UniProt P07947); test: Yes1 enzyme inhibitory activity (time-resolved fluorometry, biotinylated peptide phosphorylation); settings: biotinylated peptide phosphorylation, read-out: YES_IC50
T3 construct: made in house
How it was run: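 Inhibition was expressed against a compound-free control to give IC50, using TR-FRET read-out (Eu-cryptate anti-pTyr antibody, streptavidin-XL665).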

T3 sequence (P07947 whole entry): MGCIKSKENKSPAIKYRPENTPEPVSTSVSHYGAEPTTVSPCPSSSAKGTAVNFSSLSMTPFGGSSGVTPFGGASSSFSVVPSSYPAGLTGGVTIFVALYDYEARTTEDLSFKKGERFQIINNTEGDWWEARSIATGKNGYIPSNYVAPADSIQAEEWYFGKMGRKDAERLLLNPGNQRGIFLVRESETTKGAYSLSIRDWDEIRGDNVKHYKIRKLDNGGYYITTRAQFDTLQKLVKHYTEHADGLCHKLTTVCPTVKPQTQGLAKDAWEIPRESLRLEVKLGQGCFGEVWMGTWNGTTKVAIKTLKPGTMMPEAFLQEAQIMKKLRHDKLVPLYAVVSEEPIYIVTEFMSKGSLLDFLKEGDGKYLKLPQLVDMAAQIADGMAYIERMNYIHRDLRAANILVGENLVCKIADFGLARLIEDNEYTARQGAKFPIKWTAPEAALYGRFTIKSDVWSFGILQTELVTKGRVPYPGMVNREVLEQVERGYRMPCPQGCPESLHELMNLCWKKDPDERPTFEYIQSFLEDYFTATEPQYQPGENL
T1 sequence (P12931 whole entry): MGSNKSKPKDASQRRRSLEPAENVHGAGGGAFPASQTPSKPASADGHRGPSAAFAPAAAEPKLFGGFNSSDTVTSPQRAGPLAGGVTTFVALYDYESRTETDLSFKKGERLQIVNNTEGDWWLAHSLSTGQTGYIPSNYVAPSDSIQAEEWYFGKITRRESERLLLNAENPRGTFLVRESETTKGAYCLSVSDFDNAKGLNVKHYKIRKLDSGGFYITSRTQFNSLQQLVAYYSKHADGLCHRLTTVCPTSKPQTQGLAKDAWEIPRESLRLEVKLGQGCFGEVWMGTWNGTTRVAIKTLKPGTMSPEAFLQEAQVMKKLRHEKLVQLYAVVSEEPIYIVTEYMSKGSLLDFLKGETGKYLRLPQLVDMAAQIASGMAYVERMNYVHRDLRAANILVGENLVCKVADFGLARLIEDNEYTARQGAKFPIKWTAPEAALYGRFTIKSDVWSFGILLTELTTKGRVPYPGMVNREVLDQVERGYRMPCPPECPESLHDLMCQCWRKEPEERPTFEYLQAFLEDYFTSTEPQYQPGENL
T2 sequence (P06239 whole entry): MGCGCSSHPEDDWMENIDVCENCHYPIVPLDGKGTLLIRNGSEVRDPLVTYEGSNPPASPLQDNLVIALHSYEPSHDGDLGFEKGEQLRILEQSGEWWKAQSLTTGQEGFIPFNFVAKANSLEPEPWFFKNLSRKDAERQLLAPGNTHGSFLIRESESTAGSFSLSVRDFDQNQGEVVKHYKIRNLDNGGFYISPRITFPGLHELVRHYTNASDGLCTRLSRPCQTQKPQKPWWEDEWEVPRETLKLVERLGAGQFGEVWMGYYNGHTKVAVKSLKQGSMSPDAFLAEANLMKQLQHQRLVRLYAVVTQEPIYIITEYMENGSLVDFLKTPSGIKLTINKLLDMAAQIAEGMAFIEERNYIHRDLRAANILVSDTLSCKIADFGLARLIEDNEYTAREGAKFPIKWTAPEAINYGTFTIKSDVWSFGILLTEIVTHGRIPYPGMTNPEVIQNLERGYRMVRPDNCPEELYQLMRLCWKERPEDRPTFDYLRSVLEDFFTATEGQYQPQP

Structure (SMILES) | IC50 (human Src enzyme) | IC50 (human Lck enzyme) | IC50 (human Yes1 enzyme)
Cc1cc(Oc2ccccc2F)ccc1-n1ncc(C(=O)c2cc3cc(OCC(F)F)c(NS(=O)(=O)CCCF)cc3[nH]2)c1N [Example 4-24-022, N-[2-[5-amino-1-[4-(2-fluorophenoxy)-2-methylphenyl]pyrazole-4-carbonyl]-5-(2,2-difluoroethoxy)-1H-indol-6-yl]-3-fluoropropane-1-sulfonamide] | 30 nM | 22 nM | 3.2 nM
Cc1cc(Oc2ccccc2F)ccc1-n1ncc(C(=O)c2cc3cc(OCC(F)F)c(NS(=O)(=O)CCC(F)F)cc3[nH]2)c1N [Example 4-24-023, N-[2-[5-amino-1-[4-(2-fluorophenoxy)-2-methylphenyl]pyrazole-4-carbonyl]-5-(2,2-difluoroethoxy)-1H-indol-6-yl]-3,3-difluoropropane-1-sulfonamide] | 24 nM | 14 nM | 2.3 nM
Cc1cc(Oc2ccccc2F)cc(F)c1-n1ncc(C(=O)c2cc3cc(OCC(F)F)c(NS(=O)(=O)CCCF)cc3[nH]2)c1N [Example 4-24-026, N-[2-[5-amino-1-[2-fluoro-4-(2-fluorophenoxy)-6-methylphenyl]pyrazole-4-carbonyl]-5-(2,2-difluoroethoxy)-1H-indol-6-yl]-3-fluoropropane-1-sulfonamide] | 50 nM | 21 nM | 1.7 nM
Cc1cc(Oc2ccccc2F)ncc1-n1ncc(C(=O)c2cc3cc(OCC(F)F)c(NS(=O)(=O)C4CC4)cc3[nH]2)c1N [Example 4-24-027, N-[2-[5-amino-1-[6-(2-fluorophenoxy)-4-methylpyridin-3-yl]pyrazole-4-carbonyl]-5-(2,2-difluoroethoxy)-1H-indol-6-yl]cyclopropanesulfonamide] | 140 nM | 55 nM | 3.2 nM
Cc1cc(Oc2ccccc2F)ncc1-n1ncc(C(=O)c2cc3cc(OCC(F)F)c(NS(=O)(=O)CCCF)cc3[nH]2)c1N [Example 4-24-029, N-[2-[5-amino-1-[6-(2-fluorophenoxy)-4-methylpyridin-3-yl]pyrazole-4-carbonyl]-5-(2,2-difluoroethoxy)-1H-indol-6-yl]-3-fluoropropane-1-sulfonamide] | 54 nM | 29 nM | 1.6 nM
Cc1cc(Oc2c(F)cccc2F)ncc1-n1ncc(C(=O)c2cc3cc(OCC(F)F)c(NS(=O)(=O)CCC(F)F)cc3[nH]2)c1N [Example 4-24-033, N-[2-[5-amino-1-[6-(2,6-difluorophenoxy)-4-methylpyridin-3-yl]pyrazole-4-carbonyl]-5-(2,2-difluoroethoxy)-1H-indol-6-yl]-3,3-difluoropropane-1-sulfonamide] | 88 nM | 16 nM | 4.9 nM
Cc1cc(Oc2ccccc2F)ccc1-n1ncc(C(=O)c2cc3cc(OCCN4CCOCC4)c(NS(C)(=O)=O)cc3[nH]2)c1N [Example 4-24-034, N-[2-[5-amino-1-[4-(2-fluorophenoxy)-2-methylphenyl]pyrazole-4-carbonyl]-5-(2-morpholin-4-ylethoxy)-1H-indol-6-yl]methanesulfonamide] | 8.1 nM | 4.7 nM | 0.39 nM
COc1cc2cc(C(=O)c3cnn(-c4cnc(Oc5c(F)cccc5F)cc4C)c3N)[nH]c2cc1NS(=O)(=O)C1CC1 [Example 4-24-035, N-[2-[5-amino-1-[6-(2,6-difluorophenoxy)-4-methylpyridin-3-yl]pyrazole-4-carbonyl]-5-methoxy-1H-indol-6-yl]cyclopropanesulfonamide] | 47 nM | 5 nM | 1.2 nM
Cc1cc(Oc2ccccc2F)ccc1-n1ncc(C(=O)c2cc3cc(OCCN4CC5CC(C4)N5S(C)(=O)=O)c(NS(C)(=O)=O)cc3[nH]2)c1N [Example 4-24-037] | 24 nM | 3.8 nM | 0.67 nM
Cc1cc(Oc2ccccc2F)ccc1-n1ncc(C(=O)c2cc3cc(OCCN4C[C@@H]5C[C@H]4CN5S(C)(=O)=O)c(NS(C)(=O)=O)cc3[nH]2)c1N [Example 4-24-038, N-[2-[5-amino-1-[4-(2-fluorophenoxy)-2-methylphenyl]pyrazole-4-carbonyl]-5-[2-[(1S,4S)-2-methylsulfonyl-2,5-diazabicyclo[2.2.1]heptan-5-yl]ethoxy]-1H-indol-6-yl]methanesulfonamide] | 6.9 nM | 2.9 nM | 0.55 nM

The remaining compounds from weak to strong by IC50 (human Src enzyme), led by results:

IC50 (human Src enzyme) | IC50 (human Lck enzyme) | IC50 (human Yes1 enzyme) | Structure (SMILES)
130 nM | 46 nM | 3.3 nM | Cc1cc(Oc2ccccc2F)cc(F)c1-n1ncc(C(=O)c2cc3cc(OCC(F)F)c(NS(=O)(=O)C4CC4)cc3[nH]2)c1N [Example 4-24-024, N-[2-[5-amino-1-[2-fluoro-4-(2-fluorophenoxy)-6-methylphenyl]pyrazole-4-carbonyl]-5-(2,2-difluoroethoxy)-1H-indol-6-yl]cyclopropanesulfonamide]
120 nM | 23 nM | 1.7 nM | Cc1cc(Oc2c(F)cccc2F)ncc1-n1ncc(C(=O)c2cc3cc(OCC(F)F)c(NS(=O)(=O)C4CC4)cc3[nH]2)c1N [Example 4-24-030, N-[2-[5-amino-1-[6-(2,6-difluorophenoxy)-4-methylpyridin-3-yl]pyrazole-4-carbonyl]-5-(2,2-difluoroethoxy)-1H-indol-6-yl]cyclopropanesulfonamide]
120 nM | 20 nM | 4.2 nM | Cc1cc(Oc2ccccc2F)ccc1-n1ncc(C(=O)c2cc3cc(OC4CCOCC4)c(NS(C)(=O)=O)cc3[nH]2)c1N [Example 4-24-036, N-{2-{5-amino-1-[4-(2-fluorophenoxy)-2-methylphenyl]pyrazole-4-carbonyl}-5-(oxan-4-yloxy)-1H-indol-6-yl}methanesulfonamide]
59 nM | 13 nM | 1.6 nM | Cc1cc(Oc2ccccc2F)cc(F)c1-n1ncc(C(=O)c2cc3cc(OCC(F)F)c(NS(C)(=O)=O)cc3[nH]2)c1N [Example 4-24-025, N-[2-[5-amino-1-[2-fluoro-4-(2-fluorophenoxy)-6-methylphenyl]pyrazole-4-carbonyl]-5-(2,2-difluoroethoxy)-1H-indol-6-yl]methanesulfonamide]
57 nM | 14 nM | 0.64 nM | Cc1cc(Oc2c(F)cccc2F)ncc1-n1ncc(C(=O)c2cc3cc(OCC(F)F)c(NS(=O)(=O)CCCF)cc3[nH]2)c1N [Example 4-24-032, N-[2-[5-amino-1-[6-(2,6-difluorophenoxy)-4-methylpyridin-3-yl]pyrazole-4-carbonyl]-5-(2,2-difluoroethoxy)-1H-indol-6-yl]-3-fluoropropane-1-sulfonamide]
37 nM | 14 nM | 1.2 nM | Cc1cc(Oc2ccccc2F)ncc1-n1ncc(C(=O)c2cc3cc(OCC(F)F)c(NS(C)(=O)=O)cc3[nH]2)c1N [Example 4-24-028, N-[2-[5-amino-1-[6-(2-fluorophenoxy)-4-methylpyridin-3-yl]pyrazole-4-carbonyl]-5-(2,2-difluoroethoxy)-1H-indol-6-yl]methanesulfonamide]
21 nM | 6.7 nM | 1.2 nM | Cc1cc(Oc2c(F)cccc2F)ncc1-n1ncc(C(=O)c2cc3cc(OCC(F)F)c(NS(C)(=O)=O)cc3[nH]2)c1N [Example 4-24-031, N-[2-[5-amino-1-[6-(2,6-difluorophenoxy)-4-methylpyridin-3-yl]pyrazole-4-carbonyl]-5-(2,2-difluoroethoxy)-1H-indol-6-yl]methanesulfonamide]
